This is an account of results in patent publication US20070167488A1, “Novel therapeutic use” (Leo Pharma A/S, priority 2003, published 2007).

In this experiment the test system is IL-2. The experiment can be described thus: Inhibition of IL-2 production in phytohemagglutinin-activated human PBMCs (sandwich ELISA). The experiment is classed as cell-based. To be noted: approximately 46 hours; for IC50: Homo sapiens, PBMC, 46 h, read-out: IL-2 pIC50 (converted). The method, then:
Peripheral blood mononuclear cells (PBMCs) were isolated from human blood. The lymphocytes, a fraction of the PBMCs, were activated to secrete IL-2 using the polyclonal mitogen phytohemagglutinin. The test compounds were added in concentrations from 10^−5 to 10^−10, and the cells (10^6/ml) were incubated in microtiter wells at 37° C. for approximately 46 hours.
After 46 hours the cells were centrifuged down for 25 minutes at 1000×g and the supernatants were transferred to transferred to microtiter wells precoated with a monoclonal antibody against human IL-2. The IL-2 concentration in the supernatants was determined by a sandwich ELISA. Microtiter plates were coated (1 μg/ml) with a monoclonal antibody (R&D, UK) against human IL-2, washed 4 times, blocked with 1% casein buffer for 2 hours and washed 2 times. 100 μl sample was added to each well and incubated overnight. All samples were tested in triplicate. 100 μl IL-2 standards (R&D, UK) at a concentration range of 10000-0 pg/ml were tested in triplicate. After incubation the plates were washed and incubated with biotinylated polyclonal secondary antibody against human IL-2 (R&D, UK) for 45 minutes and thereafter washed 4 times. 100 μl enzyme conjugate, horseradish peroxidase conjugated streptavidin diluted 1:4000 (Zymed, USA), was added to all wells and incubated for 30 minutes. 100 μl OPD substrate (KEM EN TEC-DK) was added and the enzyme/substrate reaction stopped after 10 minutes at room temperature with 50 μl 1 M H2SO4. The colour development (optical density—OD) was determined at 492 nm on an ELISA reader and the background OD at 620 nm subtracted).

In the case of `COc1ccc(/C=C2/C(=O)Nc3ccccc32)c(OC)c1`, the IC50 is 2 nM. Still for that read-out and setting: the same measure for `Cc1cccc(/C=C2\C(=O)Nc3ccccc32)c1`: 631 nM.

For the compound `O=C1Nc2ccccc2/C1=C/c1cn(Cc2ccccc2)c2ccccc12`, the IC50 is 3.98 nM. Still for that read-out and setting: then `COc1cc(/C=C2/C(=O)Nc3ccccc32)c(OCc2ccccc2)cc1OC`, with 794 nM.

For the compound `O=C1Nc2cc(C(F)(F)F)ccc2/C1=C/c1c[nH]c2ccccc12`, the IC50 is 20 nM. Take `COc1ccc2c(c1)/C(=C/c1c[nH]c3ccccc13)C(=O)N2`: the IC50 is 31.6 nM.

Turning to `Cc1cc(C(=O)NCCCc2ccccc2)[nH]c1/C=C1\C(=O)Nc2ccccc21`, the IC50 was 50.1 nM. As to `Cc1[nH]c2ccccc2c1/C=C1/C(=O)Nc2ccccc21` [drawing 197], the IC50 is 794 nM.

Consider `Cc1cc(C(=O)NCCCC2CCN(C=O)CC2)[nH]c1/C=C1\C(=O)Nc2ccccc21`, for which the IC50 is 50.1 nM. Take `COc1ccc(OC)c(/C=C2/C(=O)Nc3ccc(N)cc32)c1`: the “IL-2 pIC50” value is 6.5. Take `COc1cc[nH]c1/C=C1\C(=O)Nc2ccc(Cl)cc21`: the IC50 is 50.1 nM.

As for `O=C1Nc2ccccc2/C1=C\c1cc(Cl)cc(Cl)c1O`, the IC50 was 398 nM. Same read-out and setting: then `Cc1cc(C(=O)NCCCCc2ccccc2)[nH]c1/C=C1\C(=O)Nc2ccccc21`, with 100 nM; and `Cc1cc(CO)[nH]c1/C=C1\C(=O)Nc2ccccc21` [drawing 144], with 39.8 nM. Still for that read-out and setting: then `COc1ccc(Br)cc1/C=C1/C(=O)Nc2ccccc21`, with 10 nM; and `O=C1Nc2ccccc2/C1=C/c1c[nH]c2ccccc12`, with 1 nM. For `Cc1ccc2c(/C=C3/C(=O)Nc4ccccc43)c[nH]c2c1`, the IC50 is 0.1 nM. For the compound `CCCn1cc(/C=C2\C(=O)Nc3ccccc32)c2ccccc21` [drawing 137], the IC50 was 0.2 nM. In the case of `Cc1[nH]c(/C=C2\C(=O)Nc3cccc(Cl)c32)c(C)c1CCC(=O)O`, the IC50 is 50.1 nM.

On to `COc1ccc(OC)c(/C=C2/C(=O)Nc3ccc(F)c(F)c32)c1`, for which the IC50 was 20 nM. The same measure, in the same setting: then `N#Cc1cccc2c1NC(=O)/C2=C\c1c[nH]c2ccccc12`, with 1 nM; and `O=C1Nc2ccccc2/C1=C\c1cc(Cl)ccc1Cl`, with 3.16 nM.

For the compound `O=C1Nc2ccccc2/C1=C\c1c(-c2ccccc2)[nH]c2ccccc12`, the IC50 is 100 nM. Still for that read-out and setting: the same measure for `O=C1Nc2ccccc2/C1=C\c1cc(OC(F)(F)F)ccc1O`: 63.1 nM; for `COc1ccc(OC)c(/C=C2/C(=O)Nc3c(C#N)cccc32)c1`: 31.6 nM. On the same count and under the same terms, the same measure for `COc1ccc(OC)c(/C=C2/C(=O)Nc3cc(Br)ccc32)c1` [drawing 164]: 1 nM; for `Cc1cc(C)c(/C=C2\C(=O)Nc3ccc(F)cc32)[nH]1`: 100 nM. Take `O=C1Nc2ccccc2/C1=C\c1cc(Br)ccc1Br`: the IC50 was 39.8 nM. The same measure, in the same setting: the same measure for `O=C1Nc2ccccc2/C1=C\c1cc(O)ccc1O`: 100 nM; for `O=C1Nc2ccccc2/C1=C/c1ccc(Cl)c(Cl)c1`: 20 nM.

For the compound `COc1ccc2[nH]cc(/C=C3\C(=O)Nc4ccccc43)c2c1`, the IC50 is 10 nM. The same measure, in the same setting: then `COc1ccc(OC)c(/C=C2\C(=O)N(OC)c3ccccc32)c1`, with 20 nM. Turning to `COc1ccc(OC)c(/C=C2/C(=O)Nc3c(Br)cccc32)c1`, the IC50 was 10 nM. Turning to `COc1cc[nH]c1/C=C1\C(=O)Nc2cccc(Cl)c21`, the IC50 was 0.1 nM. Consider `O=C1Nc2ccccc2/C1=C\c1ccc([N+](=O)[O-])s1`, for which the IC50 is 31.6 nM.

With `COC(=O)CCCNC(=O)c1cc(C)c(/C=C2\C(=O)Nc3ccccc32)[nH]1`, the IC50 is 50.1 nM. On the same count and under the same terms, the same measure for `Cc1cc(C(=O)NCC2(c3ccc(Cl)cc3)CC2)[nH]c1/C=C1\C(=O)Nc2ccccc21`: 63.1 nM. On the same count and under the same terms, the same measure for `COc1cccc(/C=C2/C(=O)Nc3ccccc32)c1`: 6.31 nM; for `Cc1[nH]c(/C=C2\C(=O)Nc3ccccc32)c(C)c1Br` [drawing 211]: 79.4 nM.

Consider `COc1ncc(/C=C2/C(=O)Nc3ccccc32)c(OC)n1`, for which the IC50 was 6.31 nM.
